Data: ChEMBL document CHEMBL3603764, “Structure-activity relationship of N-benzenesulfonyl matrinic acid derivatives as a novel class of coxsackievirus B3 inhibitors” (Bioorg Med Chem Lett, 2015)

Tests used:
Coxsackievirus B3 = experiment: Antivirus activity against Coxsackievirus B3 infected in African green monkey vero cells assessed as inhibition of virus-induced cytopathic effect; assay type: functional, organism-based; settings: Enterovirus B
[1] = Cytotoxicity against African green monkey Vero cells assessed as growth inhibition after 48 hrs; assay type: cell-based; settings: chlorocebus sabaeus, read-out: TC50
[2] = Selectivity index, ratio of TC50 for African green monkey vero cells to IC50 for Coxsackievirus B3; assay type: toxicity, cell-based; settings: read-out: Selectivity Index

SMILES	IC50 (Coxsackievirus B3)	CC50 at 48 h [1]	selectivity ratio [2]
CN1CCN(CCCC[C@@H]2[C@H]3CCCN4CCC[C@@H](CN2S(=O)(=O)c2ccc(C#N)cc2)[C@@H]34)CC1	> 22.2 µM		
CC(=O)c1ccc(S(=O)(=O)N2C[C@@H]3CCCN4CCC[C@@H]([C@H]34)[C@H]2CCCC(=O)N2CCOCC2)cc1	> 118 µM	> 361 µM	
CC(O)c1ccc(S(=O)(=O)N2C[C@@H]3CCCN4CCC[C@@H]([C@H]34)[C@H]2CCCCO)cc1 (some centres undefined)	> 142 µM	> 425 µM	
CC(=O)c1ccc(S(=O)(=O)N2C[C@@H]3CCCN4CCC[C@@H]([C@H]34)[C@H]2CCCCN2CCN(C)CC2)cc1	> 22.2 µM		
N#Cc1ccc(S(=O)(=O)N2C[C@@H]3CCCN4CCC[C@@H]([C@H]34)[C@H]2CCCCN2CCOCC2)cc1	> 22.2 µM	96.2 µM	
O=C(O)CCC[C@@H]1[C@H]2CCCN3CCC[C@@H](CN1S(=O)(=O)c1ccc(OC(F)(F)F)cc1)[C@@H]23	> 127 µM	> 380 µM	
CN(C)CCCC[C@@H]1[C@H]2CCCN3CCC[C@@H](CN1S(=O)(=O)c1ccc(C#N)cc1)[C@@H]23	> 22.2 µM	96.2 µM	
COC(=O)CCC[C@@H]1[C@H]2CCCN3CCC[C@@H](CN1S(=O)(=O)c1ccc(/C(C)=N/O)cc1)[C@@H]23	> 39.3 µM	53.9 µM	
CN1CCN(CCCC[C@@H]2[C@H]3CCCN4CCC[C@@H](CN2S(=O)(=O)c2cccc(C#N)c2)[C@@H]34)CC1	> 22.2 µM	116 µM	
CC(=O)c1ccc(S(=O)(=O)N2C[C@@H]3CCCN4CCC[C@@H]([C@H]34)[C@H]2CCCCN2CCOCC2)cc1	> 22.2 µM		
CC(=O)c1ccc(S(=O)(=O)N2C[C@@H]3CCCN4CCC[C@@H]([C@H]34)[C@H]2CCCC(=O)O)cc1	> 138 µM	> 413 µM	
CC(=O)c1ccc(S(=O)(=O)N2C[C@@H]3CCCN4CCC[C@@H]([C@H]34)[C@H]2CCCCN(C)C)cc1	> 22.2 µM		
CC(=O)c1ccc(S(=O)(=O)N2C[C@@H]3CCCN4CCC[C@@H]([C@H]34)[C@H]2CCCC(=O)N(C)C)cc1	> 130 µM	> 391 µM	
CN1CCN(CCCC[C@@H]2[C@H]3CCCN4CCC[C@@H](CN2S(=O)(=O)c2ccc(S(C)(=O)=O)cc2)[C@@H]34)CC1	> 22.2 µM		
CC(=O)c1ccc(S(=O)(=O)N2C[C@@H]3CCCN4CCC[C@@H]([C@H]34)[C@H]2CCCC(=O)N2CCC2)cc1	> 127 µM	> 382 µM	

Second part, led by results:

IC50 (Coxsackievirus B3)	SMILES	CC50 at 48 h [1]	selectivity ratio [2]
2.49 µM	CN(C)C(=O)CCC[C@@H]1[C@H]2CCCN3CCC[C@@H](CN1S(=O)(=O)c1cccc(C(F)(F)F)c1)[C@@H]23	168 µM	67.2
1.31 µM	COCCCC[C@@H]1[C@H]2CCCN3CCC[C@@H](CN1S(=O)(=O)c1cccc(C(F)(F)F)c1)[C@@H]23	75.4 µM	57.4
> 22.2 µM	COC(=O)c1ccc(S(=O)(=O)N2C[C@@H]3CCCN4CCC[C@@H]([C@H]34)[C@H]2CCCCN2CCN(C)CC2)cc1		
10 µM	O=S(=O)(c1ccc(OC(F)(F)F)cc1)N1C[C@@H]2CCCN3CCC[C@@H]([C@H]23)[C@H]1CCCCO	101 µM	10.1
14.7 µM	COC(=O)CCC[C@@H]1[C@H]2CCCN3CCC[C@@H](CN1S(=O)(=O)c1ccc(OC(F)(F)F)cc1)[C@@H]23	191 µM	13
7.19 µM	O=C(CCC[C@@H]1[C@H]2CCCN3CCC[C@@H](CN1S(=O)(=O)c1ccc(OC(F)(F)F)cc1)[C@@H]23)N1CCOCC1	162 µM	22.5
2.56 µM	CNC(=O)CCC[C@@H]1[C@H]2CCCN3CCC[C@@H](CN1S(=O)(=O)c1cccc(C(F)(F)F)c1)[C@@H]23	172 µM	67.2
5.58 µM	O=C(CCC[C@@H]1[C@H]2CCCN3CCC[C@@H](CN1S(=O)(=O)c1ccc(OC(F)(F)F)cc1)[C@@H]23)N1CCC1	170 µM	21.2
3.95 µM	O=C(CCC[C@@H]1[C@H]2CCCN3CCC[C@@H](CN1S(=O)(=O)c1cccc(C(F)(F)F)c1)[C@@H]23)N1CCOCC1	156 µM	38.9
4.33 µM	NC(=O)CCC[C@@H]1[C@H]2CCCN3CCC[C@@H](CN1S(=O)(=O)c1cccc(C(F)(F)F)c1)[C@@H]23	177 µM	40.8
2.74 µM	CN(C)C(=O)CCC[C@@H]1[C@H]2CCCN3CCC[C@@H](CN1S(=O)(=O)c1ccc(OC(F)(F)F)cc1)[C@@H]23	174 µM	63.3
8.41 µM	COCCCC[C@@H]1[C@H]2CCCN3CCC[C@@H](CN1S(=O)(=O)c1cccc(C#N)c1)[C@@H]23	332 µM	39.5
8.58 µM	COC(=O)CCC[C@@H]1[C@H]2CCCN3CCC[C@@H](CN1S(=O)(=O)c1ccc(C(C)=O)cc1)[C@@H]23	193 µM	22.5
> 7.4 µM	CN1CCN(CCCC[C@@H]2[C@H]3CCCN4CCC[C@@H](CN2S(=O)(=O)c2cccc(C(F)(F)F)c2)[C@@H]34)CC1	51.5 µM	
